Results as given in US12173089B2, “Inhibition of pulmonary fibrosis with nutlin-3A and peptides” (BOARD OF REGENTS, THE UNIVERSITY OF TEXAS SYSTEM, priority 2013, dated 2024).

What was measured:
[1] = tested on: ATII cell; details: BLM- or cigarette smoke-induced; cited from earlier work
[2] = tested on: BLM-treated mice; test: Established lung fibrosis in BLM-treated mice (CT scanning, lung function, trichrome staining, hydroxyproline, desmosine); format: in vivo; details: IP or IV administration beginning 14 d after BLM, WT mice; results reported herein and elsewhere
Protocol: FIGS. 10A-10D. Nutlin-3a (NTL) inhibits lung fibrosis in BLM-treated mice. Mice were exposed to BLM for 14 d to induce lung fibrosis. Saline treated mice were used as fibrosis controls. After 14 d, mice exposed to BLM were injected IV with either vehicle or nutlin-3 a (10 mg/kg body weight) (Zhang F et al. Drug Metab Dispos 39: 15-21, 2011) to determine whether nutlin-3 a inhibited established lung fibrosis. On day 21 after BLM injury, mice underwent CT scanning to assess the extent of fibrosis (FIG. 10A). One representative example is shown (n=9). (FIG. 10B) Lung compliance and resistance were measured in the same mice using the Flexivent system to assess improvement in lung function after nutlin-3 a treatment (n=9). (FIG. 10C) Lung sections were subjected to trichrome staining to assess lung architecture and collagen deposition as an indication of lung fibrosis. (FIG. 10D) Whole lung homogenates were analyzed for total collagen (hydroxyproline) and desmosine content as an independent assessment of changes in ECM.
FIGS. 11A-11D. CSP-4 inhibits established lung fibrosis and improves lung function. Mice were exposed to BLM to induce pulmonary fibrosis. After 14 d, the mice were injected IV with either vehicle or 1.5 mg/kg body weight of CSP-4 or control peptide (“CP”) of scrambled sequence. On d 21 after BLM injury, mice underwent CT scanning examine CSP-4 inhibition of established lung fibrosis (FIG. 11A). One representative example is shown (n=9). (FIG. 11B): Lung volumes were measured in the same mice (n=9) using quantitative CT renditions. (FIG. 11C): Lung sections were subjected to trichrome and H&E staining (not shown) to assess collagen deposition as an indicator of lung fibrosis. (FIG. 11D) Analysis of whole lung homogenates for total hydroxyproline content.
Mice exposed to BLM (or saline in controls) for 14 d to induce lung fibrosis were injected IV with nutlin-3a (10 mg/kg body weight) (Zhang et al, supra) or a vehicle control to determine and the effect on established lung fibrosis was examined. Fibrosis was evaluated by CT scanning and lung function (compliance and resistance) were measured using the Flexivent system. Lung sections were subjected to trichrome staining and H & E staining (the latter not shown) to assess lung architecture and collagen deposition as an indication of fibrosis. Finally, whole lung homogenates were analyzed for total collagen (hydroxyproline) and desmosine content (Bhandary Y P et al, Am J Physiol: Lung Cell Mol Physiol 302:L463-73, 2012; Bhandary Y P et al, Am J Pathol, 183: 131-43 2013) as an independent assessment of the ECM. […] Oral administration of Nutlin-3a 14 days after BLM injury likewise inhibited pulmonary fibrosis in mice.
Mice were exposed to BLM to induce pulmonary fibrosis. After 14 d, the mice were injected IV with either vehicle or 1.5 mg/kg body weight of CSP-4 (SEQ ID NO: 1) or control peptide (scrambled sequence of same amino acids; CP, SEQ ID NO:5) at 1.5 mg/kg body weight or vehicle was injected IV into mice exposed to BLM 14 days earlier. One week later, mice were tested by CT scanning to evaluate lung fibrosis. Lung volume was measured in the same mice using quantitative CT renditions.

[3] = after BLM; cited from earlier work
[4] = tested on: NL-fibroblasts; test: miR-34a and p53 in NL-fibroblasts treated with CSP; format: cell-based, human
Protocol: (§1) FIGS. 6A-6D. CSP (CSP4) augments p53 expression via induction of miR-34a in FL(IPF)-fibroblasts. (FIG. 6A) NL- and FL-fibroblasts (n=3) were treated with PBS, CSP-4 (CSP) or control peptide (CP). RNA was analyzed for miR-34a by real-time PCR. (FIG. 6B) FL-fibroblasts were treated with PBS or CSP or CP with or without miR-34a antisense (miR-34a-AS) or pre-miR-34a or control miRNA (Ctr-miR). Conditioned media (CM) were immunoblotted for PAI-1 and lysates (CL) for p53 and β-actin. (FIG. 6C) FL-fibroblasts were treated with PBS or CSP or CP in the presence or absence of miR-34a-AS, pre-miR-34a or Ctr-miR. RNA was analyzed for changes in miR-34a by real-time PCR. […] Changes in p53, uPA, PAI-1 and col-I were later assessed to identify the minimum amino acids required for the CSP effects.
(§2) NL- and FL-fibroblasts were treated with PBS, CSP or CP and RNA analyzed for miR-34a by real-time PCR. Also, FL-fibroblasts were cultured in the presence of PBS or CSP or CP with or without miR-34a antisense (miR-34a-AS) or pre-miR-34a (o control miRNA. Conditioned medium (CM) from these cultures was immunoblotted for PAI-1 and cell lysates (CL) were immunoblotted for p53. In one experiment, FL-fibroblasts were treated with PBS or CSP or CP in the presence or absence of miR-34a-AS, pre-miR-34a or control miR. RNA was analyzed for changes in miR-34a by real-time PCR. Results appear in FIGS. 6A-6C.

[5] = tested on: lung epithelial cells (LECs); details: in vitro and in vivo; cited from earlier work
[6] = tested on: FL(IPF)-fibroblasts; test: miR-34a (real-time PCR) and p53 (immunoblot) in FL-fibroblasts treated with CSP; format: cell-based, human; details: controls PBS, CP
Protocol: as §1, §2

Sequence	ATII cell apoptosis [1]	ATII cell p53 expression [1]	established lung fibrosis [2]	subsequent pulmonary fibrosis [3]	p53 expression [4]	BLM-induced apoptosis of LECs [5]	miR-34a expression [6]	p53 expression [6]
DGIWKASFTTFTVTKYWFYR (Synthetic peptide - Scaffolding domain of human caveolin-1) [CSP, 20 residue peptide which is the scaffolding domain of caveolin-1]	inhibited	inhibited	mitigates	prevented	not in NL-fibroblasts	protected	significantly increased	significantly increased
NYHYLESSMTALYTLGH [PP 2, 17 residue peptide of the inventors' earlier application]	–	–	–	prevented	–	protected	–	–
